Values joined by “and” are separate entries in the source; they are usually repeats but may differ in a detail not shown here. Equal entries are not always repeated. “Also recorded” adds a separate entry of the source. Marks after values point to notes of the source that are not given here.

For data set [1], the system named is Nx mice. Description: Subtotal nephrectomy (Nx) mouse model of CKD, curative study, interstitial fibrosis by PSR (Example 2). Type of data set: in vivo. The conditions noted are these: initiated 5 weeks after Nx. The source says:
Analysis has been focused on an experimental model of CKD, i.e. the subtotal nephrectomy (Nx). In this model, a “curative study” was investigated, i.e. treatments have been initiated 5 weeks after Nx, when lesions are already developed.
54 nine-week old FVB female mice have been investigated, of which 6 have been submitted to sham operation (controls) and 48 to subtotal nephrectomy (Nx), which consist in the excision of the right kidney and the two poles of the left kidney to reach 75% reduction of total renal mass. Surgery was performed under xylazine (Rompun 2%; Bayer, Leverkusen, France) (6 μg/g of body weight) and ketamine (Clorketam 1000; Vetoquinol SA, Lirre, France) (120 μg/g of body weight) anesthesia. […]
Kidneys were fixed in 4% paraformaldehyde, paraffin embedded, and 4-μm sections were stained with picrosirius red (PSR). […] All sections were evaluated by a pathologist who was blinded to the treatment groups.
(§1) Staining of all kidney samples with picrosirius red (PSR) was performed, and red intensity above a defined threshold was defined as fibrosis. For interstitial fibrosis, at least 10 to 15 random selected fields (magnification ×200) across the corticomedullary junction were analyzed per each kidney section, and the results were expressed as percentages of the total area of the selected fields.

Another data set deals with NASH patients. In words: Randomized, double-blind, placebo-controlled Livify NASH trial (Phase 2a). Type of data set: in vivo, human. The conditions noted are these: for ALT, absolute change (IU/L) / Alpha-2-Macroglobulin, absolute change (mg/dL) / Body Weight, absolute change (kg) / Change Relative LFC, % / GGT, absolute change (IU/L) / Waist-to-Hip Ratio, absolute change / cT1, absolute change (msec) / eGFR, absolute change (mL/min/1.73 m^2) / Change Absolute LFC, %: change from baseline to W12, mean (SD); for Change Absolute LFC, %: MRI-PDFF. The protocol:
Vonafexor has anti-fibrotic effects in NASH and Chronic Kidney Disease (CKD) models. Up to 64% of NASH patients have decreased estimated glomerular filtration rate (eGFR <90 mL/min/1.73 m^2) which can evolve into CKD. […] 96 patients were randomized 1:1:1 to daily oral Placebo (PBO, n=32) or VONA (Vonafexor) 100 mg (n=31) or 200 mg (n=33) for 12 weeks (W12). Inclusion criteria required phenotypic stage 2 or 3 fibrosis NASH with an absolute liver fat content (LFC by MRI-PDFF) ≥10% and liver stiffness by transient elastography [LSTE]≥8.5 kPa or previous biopsy-proven NASH. Randomization was stratified by diabetes and LFC.

Data set [2] concerns Nx mice. Description: Subtotal nephrectomy (Nx) mouse model of CKD, curative study, renal histopathology (Example 1). Type of data set: in vivo.
Source text: (§2) Analysis has been focused on an experimental model of CKD, i.e. the subtotal nephrectomy (Nx). In this model, a “curative study” was investigated, i.e. treatments have been initiated 5 weeks after Nx, when lesions are already developed. 42 nine-week old FVB female mice have been investigated, of which 6 have been submitted to sham operation (controls) and 36 to subtotal nephrectomy (Nx), which consist in the excision of the right kidney and the two poles of the left kidney to reach 75% reduction of total renal mass. Surgery was performed under xylazine (Rompun 2%; Bayer, Leverkusen, France) (6 μg/g of body weight) and ketamine (Clorketam 1000; Vetoquinol SA, Lirre, France) (120 μg/g of body weight) anesthesia.
After 5 weeks, mice have been divided into 4 groups: • Sham mice treated with the vehicle (n=6) • Nx mice treated with the vehicle (n=10) • Nx mice treated with dEF2572 FXR agonist (4-bromo-5-[4-(2,6-dichloro-benzenesulfonyl)-piperazin-1-yl]-benzofuran-2-carboxylic acid) at 100 mg/Kg/day (n=11) • Nx mice treated with Nidufexor (LMB763) FXR agonist at 30 mg/Kg/day (n=10)
Compounds have been administered once a day (QD) per oral gavage.
Mice have been sacrificed 3 weeks later. Blood has been collected just before sacrifice. At sacrifice, kidneys have been harvested for morphological and mRNA analyses.
Kidneys were fixed in 4% paraformaldehyde, paraffin embedded, and 4-μm sections were stained with Periodic acid-Schiff (PAS), Masson's trichrome, Hematoxylin and eosin, and picrosirius red (PSR). Images were acquired using a Nikon Digital Camera Dx/m/1200. All sections were evaluated by a pathologist who was blinded to the treatment groups.
The degree of glomerular lesions was evaluated on Periodic acid-Schiff (PAS) staining using a semi-quantitative score methodology. Briefly, 40-60 glomeruli per mouse were scored at a magnification of ×400, using the following scoring system: 0=no lesion, 1=mild sclerosis, interesting 10-25% of the glomerulus, 2=moderate sclerosis, interesting 25%-50% of the glomerulus, 3=severe sclerosis interesting 50%-75% of the glomerulus, and 4=global sclerosis interesting >75% of the glomerulus. The results were expressed as the mean of the scores of 40-60 glomeruli per mouse.
as §1, with “The degree of tubular dilations was automatically quantified on PAS staining using Image J/Fiji software, version 2.1.0. The extent of interstitial fibrosis was also quantified using Image J/Fiji software. Staining” for “Staining”, “performed simultaneously,” for “performed,”, “For tubular dilations and” for “For”

The test system of data set [3] is FXR target genes (OSTA and OSTB). Description: Renal OSTA and OSTB mRNA levels by quantitative RT-PCR in Nx mice (Example 1). The conditions noted are these: Nx mice kidneys. Type of data set: in vivo, mouse. As for the experimental part:
Mice were subjected to a subtotal nephrectomy (Nx). Treatments were initiated 5 weeks after Nx for a duration of 3 weeks. Kidneys were collected at sacrifice, and OSTA and OSTB mRNA levels were assessed by quantitative RT-PCR. p-values are indicated on the graphs.
as §2
After 5 weeks, mice have been divided into 4 groups: • Sham mice treated with the vehicle (n=6) • Nx mice treated with the vehicle (n=10) • Nx mice treated with dEF2572 FXR agonist (4-bromo-5-[4-(2,6-dichloro-benzenesulfonyl)-piperazin-1-yl]-benzofuran-2-carboxylic acid) at 100 mg/Kg/day (n=11) • Nx mice treated with Nidufexor (LMB763) FXR agonist at 30 mg/Kg/day (n=10) […]

[4] abbreviates: 100 mg/Kg/day QD oral gavage for 3 weeks, 100 mg/kg/day.
Setting [5] is: 30 mg/Kg/day QD oral gavage for 3 weeks, 30 mg/kg/day.
The mark [6] stands for this setting: 100 mg/Kg/day QD oral gavage for 3 weeks, initiated 5 weeks after Nx.

For the compound `O=C(O)c1cc2c(Cl)c(N3CCN(S(=O)(=O)c4c(Cl)cccc4Cl)CC3)ccc2o1` [Vonafexor, 4-chloro-5-[4-(2,6-dichloro-benzenesulfonyl)-piperazin-1-yl]-benzofuran-2-carboxylic acid], the “renal interstitial fibrosis (picrosirius red staining positive areas)” value (shortened to “renal interstitial fibrosis”) in the data set with Nx mice [1] (setting [4]) is listed as “significantly decreases; also recorded: significantly better than OCA; also recorded: higher beneficial effects than Losartan”. Besides, in the data set on NASH patients (100 mg), the “patients discontinued participation due to pruritus” value is listed as 9%. Moreover, the “liver fibro-inflammation marker cT1 (Liver Multiscan) reduced by” value in the data set on NASH patients (100 mg arm, p<0.001 vs PBO) was found to be 81 ms. Moreover, in the data set on NASH patients (100 mg daily oral, W12), the “% Patients >88 msec absolute reduction (cT1)” value is given as 36% *, the “% Patients with >30% absolute reduction (LFC)” value is given as 50% §, the “% Patients with >−17 IU/L reduction (ALT)” value was determined as 52% § and the “% Patients with any eGFR increase” value amounted to 76% §. In the data set on NASH patients (100 mg daily oral), the “ALT, absolute change (IU/L)” value was −19.3 (3.2) § IU/L; the “Alpha-2-Macroglobulin, absolute change (mg/dL)” value was −25.9 (4.3) #, § mg/dL; the “Body Weight, absolute change (kg)” value is reported as −1.7 (0.5) #,§ kg; the “Change Relative LFC, %” value is recorded as −30.0 (4.7) #, § %. For the same compound, in the data set on NASH patients (100 mg daily oral), the “GGT, absolute change (IU/L)” value is given as −40.6 (3.3) #, § IU/L; the “Waist-to-Hip Ratio, absolute change” value was −0.02 (0.0) #, §; the “cT1, absolute change (msec)” value is given as −80.6 (15.4) #, § msec; the “eGFR, absolute change (mL/min/1.73 m^2)” value is given as “+6.0 (9.5) #, § mL/min/1.73 m^2”. The “Change Absolute LFC, %” value with NASH patients (100 mg daily oral) is −6.3% and −6.3 (0.9) #, § %. In addition, the “non-drug related severe adverse events (number)” value in the data set on NASH patients (100 mg group) is 2. In addition, the “mean improvement in eGFR” value in the data set on NASH patients (100 mg or 200 mg treated subjects, 12 weeks) was “+5.6 mL/min/1.73 m^2”. In addition, the “patients with an eGFR increase >0.1 mL/min/1.73 m” value in the data set on NASH patients (100 mg treated subjects, 12-week treatment period) was 76%. Moreover, in the data set on NASH patients (200 mg daily oral, W12), the “% Patients >88 msec absolute reduction (cT1)” value stood at 36% *, the “% Patients with >5% absolute LFC reduction” value was 43% §, the “% Patients with >30% absolute reduction (LFC)” value is reported as 39% § and the “% Patients with >−17 IU/L reduction (ALT)” value is on record as 36%. For the same compound, in the data set on NASH patients (200 mg daily oral, W12), the “% Patients with any eGFR increase” value is 65% §. Further, in the data set with NASH patients (200 mg daily oral), the “ALT, absolute change (IU/L)” value was −10.8 (3.3) IU/L; the “Alpha-2-Macroglobulin, absolute change (mg/dL)” value is given as −18.4 (4.5) #, § mg/dL; the “Body Weight, absolute change (kg)” value was −2.5 (0.5) #, § kg; the “Change Relative LFC, %” value was −25.5 (4.6) #, § %. Moreover, in the data set with NASH patients (200 mg daily oral), the “GGT, absolute change (IU/L)” value is −34.1 (3.3) #, § IU/L; the “Waist-to-Hip Ratio, absolute change” value was −0.01 (0.0); the “cT1, absolute change (msec)” value is recorded as −71.9 (14.2) #, § msec; the “eGFR, absolute change (mL/min/1.73 m^2)” value is “+2.5 (14.5) #, § mL/min/1.73 m^2”. Also, the “Change Absolute LFC, %” value in the data set on NASH patients (200 mg daily oral) is −5.5% and −5.5 (0.9) #, § %. In addition, the “non-drug related severe adverse events (number)” value with NASH patients (200 mg group) came to 2. Further, in the data set with NASH patients (NASH patients, 100 mg or 200 mg daily for 12 weeks), the “overall safety and tolerability” value is “safe and well tolerated”. In the data set on NASH patients (NASH patients, 12 weeks), the “ALT increases Grade 2” value is given as “No ALT increases Grade 2” and the “increase in low density lipoprotein-cholesterol (LDL-C)” value worked out at 34%. The “alpha-2-Macroglobulin (A2M) plasma levels” value in the data set on NASH patients (NASH patients, reduction correlated with eGFR improvement (p<0.05)) was “reduced”. For the same compound, the “mean reduction in ALT” value with NASH patients (VONA treatment (dose not stated), 12 weeks) is 26%. In addition, the “patients achieving relative LFC reduction of >30%” value in the data set on NASH patients (VONA-treated (dose not stated), W12) is 50%. The “mean reduction in GGT” value in the data set with NASH patients (VONA-treated subjects (dose not stated), p<0.001) is 42%.
Turning to `CC[C@H]1[C@@H](O)[C@@H]2[C@H](CC[C@]3(C)[C@@H]([C@H](C)CCC(=O)O)CC[C@@H]23)[C@@]2(C)CC[C@@H](O)C[C@@H]12` [Obeticholic acid, reference compound], the “renal interstitial fibrosis” value in the data set on Nx mice [1] (setting [5]) was “no significant effect”.
`O=C(O)c1cc2c(Br)c(N3CCN(S(=O)(=O)c4c(Cl)cccc4Cl)CC3)ccc2o1` [dEF2572, 4-bromo-5-[4-(2,6-dichloro-benzenesulfonyl)-piperazin-1-yl]-benzofuran-2-carboxylic acid]: in the data set on Nx mice [2] (setting [6]), the “renal glomerular lesions (semi-quantitative score)” value is on record as “significantly decreases”, the “renal interstitial fibrosis” value is on record as “significantly decreases” and the “renal tubular dilatation (PAS staining)” value was “significantly decreases”. Also, the “renal expression of FXR target genes OSTA and OSTB (mRNA)” value in data set [3] (setting [4]) is “strong renal FXR target engagement; also recorded: significantly increase”.
For the compound `Cn1nc(C(=O)N(Cc2ccccc2)Cc2ccc(C(=O)O)cc2)c2c1-c1cc(Cl)ccc1OC2` [Nidufexor], the interstitial fibrosis result in the data set on Nx mice [2] (30 mg/Kg/day QD oral gavage for 3 weeks (FIG. 1)) is listed as “no significant effect”. Moreover, in the data set with Nx mice [2] (30 mg/Kg/day QD oral gavage for 3 weeks, initiated 5 weeks after Nx), the “beneficial effects on the kidneys (interstitial fibrosis, tubular dilatation, glomerular lesions)” value was “not observed”. Further, the “renal expression of FXR target genes OSTA and OSTB (mRNA)” value in data set [3] (setting [5]) is “strong renal FXR target engagement; also recorded: more powerful FXR agonist than the identified compounds; also recorded: significantly increase”.

Values taken from US20230165853A1, “METHOD FOR TREATING CHRONIC KIDNEY DISEASES” (ENYO PHARMA, priority 2021, published 2023).
